Converted amounts (≈) assume the structure as drawn. Like-named read-outs stand apart in the source and are kept apart here.
Columns and labels:
PC12 mHTTQ103 cells = experiment: Rescue of PC12 cells from mHTTQ103-induced cell death; format: cell-based, rat; conditions: for EC50: Rattus norvegicus, PC-12
physchem = conditions: organic solvent or mixture
[1] = biological target: T1, human catalytic PDI A1 a domain (PDIa) (Homo sapiens, UniProt P07237); experiment: Isothermal titration calorimetry (ITC) binding to PDIa
T1 construct: made in house; host or cells: Escherichia coli BL21-Gold (DE3)
T1 sequence (P07237 18-134): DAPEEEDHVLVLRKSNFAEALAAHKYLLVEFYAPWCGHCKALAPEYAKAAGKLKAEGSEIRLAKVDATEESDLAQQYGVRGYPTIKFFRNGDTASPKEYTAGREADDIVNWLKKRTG
Method: All ITC experiments were carried out at 25° C. on MicoCal Auto-ITC200 system (GE Healthcare). […] ITC titration experiments were carried out at 25° C. with 19 injections, 2 μl per injection, and 180 seconds between each injection. The reference cell power was set to 5 μcal/sec. A control experiment was performed for each compound, where each compound was titrated into buffer to account for heat released due to dilution. This background was subtracted from test data before a final dissociation constant was obtained. […] Gibbs free energy, ΔG, was calculated from equation ΔG=ΔH-TΔS. All other parameters, Ka, n, ΔH, ΔS, were determined directly from the titration data.
LOC14 analogs were designed and synthesized as described in the synthetic schemes. The analogs were evaluated for their binding to PDIa using isothermal titration calorimetry (ITC) (results of certain compounds are shown in FIGS. 1A-1E). Next, the analogs were tested for their ability to rescue PC12 cells from mHTT^Q103 induced cell death in a dose-dependent manner (results of certain compounds are shown in FIG. 2).

[2] = Solubility (stock solvent)
[3] = Tables 5-13, PC12 cells, read-out: EC50
[4] = rescue from mHTTQ103 induced cell death, read-out: PC12 cells EC50
[5] = rescue from mHTTQ103 induced cell death
[6] = N/A = not active, read-out: ITC KD
[7] = Tables 5-13, NA = not active, read-out: Kd
[8] = FIG. 1, PDI A1a titrated into compound in 0.8% NMP, read-out: Kd1
[9] = Tables 5-13, solvent not given (DMSO in Table 1)

Solubility (physchem; NMP (N-Methyl-2-Pyrrolidine))	Solubility (physchem; NMP)	ITC binding ([1]; FIG. 1, PDI A1a titrated into compound in 0.8% NMP)	ITC KD ([1]; N/A = not active)	Solubility (physchem)	Kd [1, 6]	Kd [1, 7]	Solubility [2]	Solubility (physchem; DMSO)	Kd ([1]; ITC assay, read-out: KD)	Solubility [2, 9]	SMILES	EC50 (PC12 mHTTQ103 cells; [3])	EC50 (PC12 mHTTQ103 cells; [4])	Max Viability (%) (PC12 mHTTQ103 cells; Tables 5-13, PC12 cells)	PC12 cells Max % Viability (PC12 mHTTQ103 cells; [5])	Kd [1, 8]	Kd ([1]; read-out: ITC KD)	PC12 cells EC50 (PC12 mHTTQ103 cells; [5])
–	–	–	–	100 mM (≈ 34.7 mg/mL)	8.2 nM	8 nM	100 mM in DMSO	–	–	–	Cc1nnc2sn(CN3CCN(C(=O)C4CC4)CC3)c(=O)c2c1C [LC-59]	10600 nM	10600 nM	59%	59.20%	–	–	–
–	–	–	–	100 mM (≈ 25 mg/mL)	162 nM	162 nM	100 mM in DMSO	–	–	–	O=c1c2ccccc2sn1CN1CC[C@@H](O)C1 [LC-65, (R)-2-((3-hydroxypyrrolidin-1-yl)methyl)benzo[d]isothiazol-3(2H)-one]	456 nM	456 nM	77%	77.01%	–	–	–
–	–	–	–	50 mM (≈ 16.6 mg/mL)	662 nM	662 nM	–	50 mM (≈ 16.6 mg/mL)	–	–	Cc1ccc2c(=O)n(CN3CCN(C(=O)C4CC4)CC3)sc2c1 [LC-62, 2-((4-(cyclopropanecarbonyl)piperazin-1-yl)methyl)-6-methylbenzo[d]isothiazol-3(2H)-one]	1580 nM	1580 nM	54%	54.31%	–	–	–
–	–	–	–	50 mM (≈ 16.6 mg/mL)	240 nM	240 nM	–	50 mM (≈ 16.6 mg/mL)	–	–	Cc1ccc2sn(CN3CCN(C(=O)C4CC4)CC3)c(=O)c2c1 [LC-63, 2-((4-(cyclopropanecarbonyl)piperazin-1-yl)methyl)-5-methylbenzo[d]isothiazol-3(2H)-one]	659 nM	659 nM	66%	–	–	–	–
–	–	–	–	50 mM (≈ 15.9 mg/mL)	9.6 nM	–	–	50 mM (≈ 15.9 mg/mL)	10 nM	–	O=C(C1CC1)N1CCN(Cn2sc3ncccc3c2=O)CC1 [LC-46]	2830 nM	2830 nM	39%	39.23%	–	–	–
–	–	–	–	50 mM (≈ 16.6 mg/mL)	–	1210 nM	–	50 mM (≈ 16.6 mg/mL)	–	–	O=c1c2ccccc2sn1CN1CCC(N2CCCCC2)CC1 [LC-64, 2-([1,4′-bipiperidin]-1′-ylmethyl)benzo[d]isothiazol-3(2H)-one]	393 nM	393 nM	81%	81.43%	–	1210 nM	–
–	–	–	–	–	–	140 ± 29 nM	100 mM in DMSO	–	–	100 mM (≈ 32.7 mg/mL)	O=c1c2ccccc2sn1CN1CCN(c2ncccn2)CC1 [LC-12]	416 nM	–	68%	68.35%	–	–	–
–	–	–	KD = N/A irreversible or not active	–	–	–	100 mM in DMSO	–	–	100 mM (≈ 35.2 mg/mL)	O=C(C1CC1)N1CCN(Cn2sc3c(Cl)cccc3c2=O)CC1 [LC-39]	–	–	7%	7.02%	–	–	Not Active

More lines, now with the values behind:

SMILES	Solubility (physchem; NMP (N-Methyl-2-Pyrrolidine))	Solubility (physchem; NMP)	ITC binding ([1]; FIG. 1, PDI A1a titrated into compound in 0.8% NMP)	ITC KD ([1]; N/A = not active)	Solubility (physchem)	Kd [1, 6]	Kd [1, 7]	Solubility [2]	Solubility (physchem; DMSO)	Kd ([1]; ITC assay, read-out: KD)	Solubility [2, 9]	EC50 (PC12 mHTTQ103 cells; [3])	EC50 (PC12 mHTTQ103 cells; [4])	Max Viability (%) (PC12 mHTTQ103 cells; Tables 5-13, PC12 cells)	PC12 cells Max % Viability (PC12 mHTTQ103 cells; [5])	Kd [1, 8]	Kd ([1]; read-out: ITC KD)	PC12 cells EC50 (PC12 mHTTQ103 cells; [5])
O=c1c2cccnc2sn1CN1CCN(Cn2sc3ncccc3c2=O)CC1 [LC-68, 2,2′-(piperazine-1,4-diylbis(methylene))bis(isothiazolo[5,4-b]pyridin-3(2H)-one)]	5 mM (≈ 2.07 mg/mL)	5 mM (≈ 2.07 mg/mL)	no binding	Not active or irreversible	–	–	–	–	–	–	–	2060 nM	2060 nM	36%	35.78%	–	–	–
Cc1nc2sn(CN3CCN(Cn4sc5nc(C)c(C)c(C)c5c4=O)CC3)c(=O)c2c(C)c1C [LC-71, 2,2′-(piperazine-1,4-diylbis(methylene))bis(4,5,6-trimethylisothiazolo[5,4-b]pyridin-3(2H)-one)]	2.5 mM (≈ 1.25 mg/mL)	2.5 mM (≈ 1.25 mg/mL)	–	–	–	–	–	–	–	–	–	1020 nM	1020 nM	41%	40.98%	–	–	–
O=c1c2cccc(F)c2sn1CN1CCN(Cn2sc3c(F)cccc3c2=O)CC1 [LC-69, 2,2′-(piperazine-1,4-diylbis(methylene))bis(7-fluorobenzo[d]isothiazol-3(2H)-one)]	5 mM (≈ 2.24 mg/mL)	5 mM (≈ 2.24 mg/mL)	–	–	–	700 nM	700 nM	–	–	–	–	1970 nM	1970 nM	46%	45.50%	700 nM	–	–
Cc1cc(C)c2c(=O)n(CN3CCN(Cn4sc5nc(C)cc(C)c5c4=O)CC3)sc2n1 [LC-70, 2,2′-(piperazine-1,4-diylbis(methylene))bis(4,6-dimethylisothiazolo[5,4-b]pyridin-3(2H)-one)]	5 mM (≈ 2.35 mg/mL)	5 mM (≈ 2.35 mg/mL)	–	–	–	–	3800 nM	–	–	–	–	3090 nM	3090 nM	59%	59.18%	3800 nM	3800 nM	–
O=C(Nc1ccc(Cc2ccccc2)cc1)c1ccccc1S [LC-23]	–	–	–	KD = N/A irreversible or not active	–	–	–	100 mM in DMSO	–	–	100 mM (≈ 31.9 mg/mL)	3880 nM	–	57%	56.53%	–	–	–
O=C(Nc1cccc(F)c1)c1ccccc1S [LC-30]	–	–	–	KD = N/A irreversible or not active	–	–	–	100 mM in DMSO	–	–	100 mM (≈ 24.7 mg/mL)	2990 nM	–	62%	62.38%	–	–	–
O=c1c2ccccc2sn1CN1CCSCC1 [LC-3]	–	–	–	–	–	97.1 nM	–	–	–	–	100 mM (≈ 26.6 mg/mL)	463 nM	–	63%	63.05%	–	–	–
CN1CCN(Cn2sc3ccccc3c2=O)CC1 [LC-2]	–	–	–	–	–	–	134 ± 20 nM	100 mM in DMSO	–	–	100 mM (≈ 26.3 mg/mL)	415 nM	–	63%	63.29%	–	–	–
Cc1nnc2sn(CN3CCN(Cn4sc5nnc(C)c(C)c5c4=O)CC3)c(=O)c2c1C [LC-72, 2,2′-(piperazine-1,4-diylbis(methylene))bis(4,5-dimethylisothiazolo[5,4-c]pyridazin-3(2H)-one)]	1 mM (≈ 0.473 mg/mL)	1 mM (≈ 0.473 mg/mL)	–	–	–	–	–	–	–	–	–	–	–	10%	10.26%	–	–	Not Active
O=C(NCc1ccc(Br)cc1)c1ccccc1S [LC-20]	–	–	–	KD = N/A irreversible or not active	–	–	–	100 mM in DMSO	–	–	100 mM (≈ 32.2 mg/mL)	> 50000 nM	–	42%	42.11%	–	–	–
O=c1c2ccccc2sn1Cc1ccc(Br)cc1 [LC-26]	–	–	–	KD = N/A irreversible or not active	–	–	–	100 mM in DMSO	–	–	100 mM (≈ 32 mg/mL)	778 nM	–	38%	37.88%	–	–	–
NC(=O)c1cccc(F)c1SSc1c(F)cccc1C(N)=O [LC-44, 2,2′-disulfanediylbis(3-fluorobenzamide)]	–	–	–	KD = N/A irreversible or not active	–	–	–	100 mM in DMSO	–	–	–	–	–	–	87.19%	–	–	–
O=c1c2ccccc2sn1-c1ccc(Cc2ccccc2)cc1 [LC-25]	–	–	–	KD = N/A irreversible or not active	–	–	–	100 mM in DMSO	–	–	100 mM (≈ 31.7 mg/mL)	1590 nM	–	37%	36.83%	–	–	–

— patent US20220380383A1, “NEUROPROTECTIVE PDI MODULATING SMALL MOLECULES AND METHODS OF USE THEREOF” (THE TRUSTEES OF COLUMBIA UNIVERSITY IN THE CITY OF NEW YORK, priority 2018, published 2022)
